Assays:
SkAtf2p = target: T1, SkAtf2p (Saccharomyces kudriavzevii, UniProt A0AA35JHW3); test: acetate ester formation by headspace SPME gas chromatography, cell extract; assay type: biochemical; details: acetyl-CoA 0.8 mM, 50 mM potassium phosphate pH 7.5, 10% glycerol
T1 construct: gene SKDI07G4300; full-length untagged, pG-SkATF2-TDH3p in S. cerevisiae BY4741 atf1 atf2 iah1, cell extract (strain CLpSkATF2); N-terminus MDDIEEY translated from printed primer pGSkATF2f
T1 sequence (A0AA35JHW3 1-535): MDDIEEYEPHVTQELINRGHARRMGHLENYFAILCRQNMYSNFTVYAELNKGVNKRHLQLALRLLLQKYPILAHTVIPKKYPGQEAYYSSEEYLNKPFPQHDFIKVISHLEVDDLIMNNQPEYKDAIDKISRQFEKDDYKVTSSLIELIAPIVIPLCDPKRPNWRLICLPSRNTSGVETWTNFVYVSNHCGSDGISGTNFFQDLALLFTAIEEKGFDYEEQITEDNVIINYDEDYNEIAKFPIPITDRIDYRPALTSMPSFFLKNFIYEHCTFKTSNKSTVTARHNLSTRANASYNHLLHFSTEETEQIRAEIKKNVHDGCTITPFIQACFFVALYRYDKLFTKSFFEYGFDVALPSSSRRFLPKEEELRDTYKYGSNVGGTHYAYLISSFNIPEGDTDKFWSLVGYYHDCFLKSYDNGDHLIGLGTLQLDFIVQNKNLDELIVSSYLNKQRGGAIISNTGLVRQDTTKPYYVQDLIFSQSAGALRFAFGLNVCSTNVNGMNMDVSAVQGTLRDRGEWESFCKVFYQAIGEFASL

SuAtf2p = target: T2, SuAtf2p (Saccharomyces uvarum, UniProt A0ABN8WWD5); test: as above; assay type: biochemical; details: acetyl-CoA 0.8 mM, 50 mM potassium phosphate pH 7.5, 10% glycerol
T2 construct: gene SUVZ07G4070; full-length untagged, pG-SuATF2-TDH3p in S. cerevisiae BY4741 atf1 atf2 iah1, cell extract (strain CLpSuATF2); N-terminus MDSLEEY translated from printed primer pGSuATF2f
T2 sequence (A0ABN8WWD5 1-545): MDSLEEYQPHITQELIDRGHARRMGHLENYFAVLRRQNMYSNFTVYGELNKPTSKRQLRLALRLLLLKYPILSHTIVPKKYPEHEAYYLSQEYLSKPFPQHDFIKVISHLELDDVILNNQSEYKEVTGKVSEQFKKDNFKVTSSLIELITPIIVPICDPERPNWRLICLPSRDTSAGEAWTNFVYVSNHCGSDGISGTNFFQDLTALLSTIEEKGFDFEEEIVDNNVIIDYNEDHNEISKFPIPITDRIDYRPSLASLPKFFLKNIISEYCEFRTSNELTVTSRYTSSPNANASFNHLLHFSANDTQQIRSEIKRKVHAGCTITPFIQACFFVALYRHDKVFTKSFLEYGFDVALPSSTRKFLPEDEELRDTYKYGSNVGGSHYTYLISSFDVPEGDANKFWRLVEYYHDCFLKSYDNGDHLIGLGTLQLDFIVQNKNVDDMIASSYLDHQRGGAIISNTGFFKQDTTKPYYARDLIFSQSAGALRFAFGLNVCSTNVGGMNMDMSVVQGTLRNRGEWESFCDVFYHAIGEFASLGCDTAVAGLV

ScAtf2p = target: T3, ScAtf2p (Saccharomyces cerevisiae, UniProt P53296); test: as above; assay type: biochemical; details: acetyl-CoA 0.8 mM, 50 mM potassium phosphate pH 7.5, 10% glycerol
T3 construct: gene ATF2; full-length untagged, pG-ScATF2-TDH3p in S. cerevisiae BY4741 atf1 atf2 iah1, cell extract (strain CLpScATF2)
T3 sequence (P53296 1-535): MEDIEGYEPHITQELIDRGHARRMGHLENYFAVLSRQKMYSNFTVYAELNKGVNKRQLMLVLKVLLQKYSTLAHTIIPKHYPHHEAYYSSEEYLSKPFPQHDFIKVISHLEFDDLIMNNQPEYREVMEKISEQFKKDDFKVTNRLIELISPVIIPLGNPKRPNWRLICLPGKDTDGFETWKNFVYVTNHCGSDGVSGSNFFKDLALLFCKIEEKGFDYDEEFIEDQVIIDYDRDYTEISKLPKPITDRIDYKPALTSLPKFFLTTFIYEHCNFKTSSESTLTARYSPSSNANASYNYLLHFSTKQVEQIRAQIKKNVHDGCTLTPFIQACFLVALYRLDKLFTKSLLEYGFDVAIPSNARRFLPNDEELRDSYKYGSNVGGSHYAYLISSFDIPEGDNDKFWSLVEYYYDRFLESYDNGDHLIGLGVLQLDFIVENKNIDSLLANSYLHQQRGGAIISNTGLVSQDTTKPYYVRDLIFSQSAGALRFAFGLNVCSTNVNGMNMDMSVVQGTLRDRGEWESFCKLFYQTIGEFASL

[1] = substrate: CC(C)CCO; test: isoamyl acetate formation by headspace SPME gas chromatography, cell extract; assay type: biochemical, Saccharomyces cerevisiae; details: acetyl-CoA 0.8 mM, 50 mM potassium phosphate pH 7.5, 10% glycerol, isoamyl alcohol 0.01-100 mM
Description: isoamyl acetate formation by headspace SPME gas chromatography, cell extract on ScAtf1p

[2] = substrate: CC(C)CCO; test: as above; assay type: biochemical, Saccharomyces uvarum; details: acetyl-CoA 0.8 mM, 50 mM potassium phosphate pH 7.5, 10% glycerol, isoamyl alcohol 0.01-100 mM
Description: isoamyl acetate formation by headspace SPME gas chromatography, cell extract on SuAtf1p

OCCc1ccccc1 [2-phenylethanol]
acetate ester formation by headspace SPME gas chromatography, cell extract (SkAtf2p; 30 mM alcohol): the proportion of the enzyme activity of SkAtf2p and SuAtf2p to 2-phenylethanol | acetate ester formation by headspace SPME gas chromatography, cell extract (SuAtf2p; 30 mM alcohol): the proportion of the enzyme activity of SkAtf2p and SuAtf2p to 2-phenylethanol | acetate ester formation by headspace SPME gas chromatography, cell extract (ScAtf2p; 30 mM alcohol): all the strains that expressed the individual ATF1 and ATF2 orthologs exhibited activities

CC(C)CCO [isoamyl alcohol]
acetate ester formation by headspace SPME gas chromatography, cell extract (SkAtf2p; 100 mM alcohol): enzymes Atf2 showed considerably stronger activity toward isoamyl alcohol than the other substrates | acetate ester formation by headspace SPME gas chromatography, cell extract (SuAtf2p; 100 mM alcohol): enzymes Atf2 showed considerably stronger activity toward isoamyl alcohol than the other substrates | acetate ester formation by headspace SPME gas chromatography, cell extract (ScAtf2p; 100 mM alcohol): enzymes Atf2 showed considerably stronger activity toward isoamyl alcohol than the other substrates

B1: ScAtf1p (Saccharomyces cerevisiae S288C) (protein)
chain: MNEIDEKNQAPVQQECLKEMIQNGHARRMGSVEDLYVALNRQNLYRNFCTYGELSDYCTRDQLTLALREICLKNPTLLHIVLPTRWPNHENYYRSSEYYSRPHPVHDYISVLQELKLSGVVLNEQPEYSAVMKQILEEFKNSKGSYTAKIFKLTTTLTIPYFGPTGPSWRLICLPEEHTEKWKKFIFVSNHCMSDGRSSIHFFHDLRDELNNIKTPPKKLDYIFKYEEDYQLLRKLPEPIEKVIDFRPPYLFIPKSLLSGFIYNHLRFSSKGVCMRMDDVEKTDDVVTEIINISPTEFQAIKANIKSNIQGKCTITPFLHVCWFVSLHKWGKFFKPLNFEWLTDIFIPADCRSQLPDDDEMRQMYRYGANVGFIDFTPWISEFDMNDNKENFWPLIEHYHEVISEALRNKKHLHGLGFNIQGFVQKYVNIDKVMCDRAIGKRRGGTLLSNVGLFNQLEEPDAKYSICDLAFGQFQGSWHQAFSLGVCSTNVKGMNIVVASTKNVVGSQESLEELCSIYKALLLGP
notes: full-length untagged, pG-ScATF1-TDH3p in S. cerevisiae BY4741 atf1 atf2 iah1, cell extract (strain CLpScATF1)
Km [1]: 32.2 ± 2.2 mM | Vmax [1]: 0.00999 µmol/min/mg

B2: SuAtf1p (Saccharomyces uvarum) (protein)
chain: MNTYSEKTSLVQDECLAKMIQNGHSRRMGSVEDLYAALNRQKLYRNFSTYSELNDYCTKDQLTLALRNICLKNPTLLHIVLPARWPDYENYYLSTEYYSQPHPKHDYISVLPELKFDGVILNEQPEHNALMKQILQELKDNNGSYTAKVFKLTTALTIPYAGPTSPTWRLICLPEEGHTDKWKKFIFLSNHCMCDGRSSIHFFQDLRDELNNMKTPPKKLDYIFQYEKDYQLLRKLPEPIENMIDFRPPYMFIPKSLISGFIYSHLRFSSKGVCTRMDEIEKSDEVVTEIITISPSEFQKIKAIIKSNIPGKCTITPFLEVCWFVSLHKWGKFFKPLKFEWLTDVFIPADCRSLLPEDEEVRAMYRYGANVGFVDFTPWISEFNMNDSKENFWPLIAHYHEVISGAIKDKKHLNGLGFNIQGLVQKYVNIDKVMRDRALGKSRGGTLLSNVGIFHQSEETDSRYSIRDLAFGQFQGSWHQAFSLGVCSTNVKGMNIVISSTKNVVGSQESLEELCAMYKALLLNP
notes: full-length untagged, pG-SuATF1-TDH3p in S. cerevisiae BY4741 atf1 atf2 iah1, cell extract (strain CLpSuATF1); N-terminus MNTYSE translated from printed primer pGSuATF1f
Km [2]: 92.9 ± 10.9 mM | Vmax [2]: 0.00569 µmol/min/mg

Source: paper PMC4894917, “Differences in Enzymatic Properties of the Saccharomyces kudriavzevii and Saccharomyces uvarum Alcohol Acetyltransferases and Their Impact on Aroma-Active Compounds Production” (Frontiers in Microbiology, 2016)
